# Experimental data taken from patent publication US20230295162A1 (EÖTVÖS LORÁND TUDOMÁNYEGYETEM, priority 2020, published 2023).
# Where two headings read alike, the source gives them in different places.
# Experiments:
# [1] = tested on: PANC-1 (human pancreatic carcinoma) cells; test: Impedance-based viability assay (xCELLigence SP), long treatment; assay type: cell-based; conditions: 72 h, read-out: cytotoxicity expressed in IC50, PANC-1
# From the text: (Gibco®/Invitrogen Corporation, New York, NY, USA).
# Data obtained from each experiment represent mathematical averages.
# [2] = tested on: H2228 lung cancer cell line; test: High-throughput screening, CellTiter-Glo cell viability assay at 100 nM; assay type: cell-based, human; conditions: Homo sapiens, NCI-H2228, HTS, compounds at 100 nM, 72 h, read-out: cytotoxicity expressed in IC50, H2228 (results of High throughput screening)
# Procedure: (§1) EBC-1 (obtained from JRCB, https://cellbank.nibiohn.go.jp/english/) and H2228 (obtained from ATCC https://www.lgcstandards-atcc.org/) cell lines were maintained according to the instructions provided by JRCB and ATCC in a 5% CO2 humidified incubator maintained at 37° C. temperature. Effect of compounds on cell viability was measured via CellTiter-Glo® luminescent cell viability assay (Promega, Madison, WI, USA). Cells were plated at 1000 cells/well onto a flat-bottomed, white 96 well plate (BRANDplates, cat. no.: 781965). After 24 h, cells were treated for 72 h with the compounds at 100 nM concentration. After the treatment, medium was removed and CellTiter-Glo® reagent was added. Untreated cells were used as control. The luminescence signal was recorded using a microplate reader (BioTek Synergy 2 Multi-Mode Reader, BioTek, Winooski, VT, USA). Cell viability data (% of untreated control cells) was evaluated with Microsoft Excel.
# [3] = tested on: EBC-1 lung cancer cell line; test: as above; assay type: cell-based, human; conditions: Homo sapiens, EBC-1, HTS, compounds at 100 nM, 72 h, read-out: cytotoxicity expressed in IC50, EBC-1 (results of High throughput screening)
# Procedure: as §1
# Panc-1 human cell line = test: Cytotoxicity on Panc-1, xCELLigence SP, IC50 after 24 h, 48 h, 72 h and 96 h (Example 22)
# [4] = tested on: MIA PaCa-2 (pancreas, carcinoma) cells; test: Cell viability assay, CellTiter-Glo (Example 21); assay type: cell-based, human; conditions: 72 h treatment
# Procedure: (§2) Effect of the selected compounds on cancer cell viability was measured via CellTiter-Glo® luminescent cell viability assay (Promega, Madison, WI, USA) according to the manufacturer's instructions. Cells were plated onto a flat-bottomed, white 96 well plate (BRANDplates®, cat. no.: 781965). Density of the seeded cells was optimized based on their size and growth rate, as the follows: Panc-1:750 cells/well; DU 145, PC-3, Capan-1, MIA PaCa-2, SCC-25, FaDu and EBC-1: 1000 cells/well; LNCaP, Detroit 562, MDA-MB-231 and MDA-MB-453 1500 cells/well. […] After the treatment, the luminescence signal was recorded using a microplate reader (BioTek Synergy 2 Multi-Mode Reader, BioTek, Winooski, VT, USA). Dose-response curves were generated by GraphPad Prism 8.4.2. software using a non-linear regression model (variable slope, four parameters), (see FIGS. 12-51).
# [5] = tested on: PC-3 (prostate, adenocarcinoma) cells; test: Cell viability assay, CellTiter-Glo (Example 21); assay type: cell-based, human; conditions: 72 h treatment
# Procedure: as §2
# [6] = tested on: FaDu (pharynx, squamous cell carcinoma) cells; test: Cell viability assay, CellTiter-Glo (Example 21); assay type: cell-based, human; conditions: 72 h treatment
# Procedure: as §2
# [7] = tested on: Panc-1 (pancreas, carcinoma) cells; test: Cell viability assay, CellTiter-Glo (Example 21); assay type: cell-based, human; conditions: 72 h treatment
# Procedure: as §2
# [8] = tested on: LNCaP (prostate, carcinoma) cells; test: Cell viability assay, CellTiter-Glo (Example 21); assay type: cell-based, human; conditions: 72 h
# Procedure: as §2
# [9] = tested on: MDA-MB-453 (breast, carcinoma) cells; test: Cell viability assay, CellTiter-Glo (Example 21); assay type: cell-based, human; conditions: 72 h treatment
# Procedure: as §2
# [10] = tested on: EBC-1 (lung, squamous cell carcinoma) cells; test: Cell viability assay, CellTiter-Glo (Example 21); assay type: cell-based, human; conditions: 72 h treatment
# Procedure: as §2
# [11] = tested on: Detroit 562 (pharynx, carcinoma) cells; test: Cell viability assay, CellTiter-Glo (Example 21); assay type: cell-based, human; conditions: 72 h treatment
# Procedure: as §2
# [12] = tested on: SCC-25 (tongue, squamous cell carcinoma) cells; test: Cell viability assay, CellTiter-Glo (Example 21); assay type: cell-based, human; conditions: 72 h treatment
# Procedure: as §2
# [13] = tested on: Capan-1 (pancreas, adenocarcinoma) cells; test: Cell viability assay, CellTiter-Glo (Example 21); assay type: cell-based, human; conditions: 72 h treatment
# Procedure: as §2
# [14] = tested on: MDA-MB-231 (breast, adenocarcinoma) cells; test: Cell viability assay, CellTiter-Glo (Example 21); assay type: cell-based, human; conditions: 72 h treatment
# Procedure: as §2
# [15] = tested on: DU 145 (prostate, carcinoma) cells; test: Cell viability assay, CellTiter-Glo (Example 21); assay type: cell-based, human; conditions: 72 h
# Procedure: as §2
smiles,measurement,setting,value
"O=C1C2=C(CCN(Cc3cccc(F)c3)C2)N2CCN=C2N1Cc1ccc(F)cc1 [I/6, reference compound]",IC50,[1],< 100 nM
same,IC50,[2],< 100 nM
same,IC50,[3],< 100 nM
same,IC50,"Panc-1 human cell line; PANC-1, 72 h, read-out: IC50 (72 h) [nM]",126 ± 5.96 nM
same,IC50,"Panc-1 human cell line; PANC-1, 96 h, read-out: IC50 (96 h) [nM]",75.5 ± 6.76 nM
same,"MIA PaCa-2 (pancreas, carcinoma) cell viability (% of control)",[4]; 3.7 nM,101.6 ± 10.8 % of control
same,"MIA PaCa-2 (pancreas, carcinoma) cell viability (% of control)",[4]; 11.1 nM,110.7 ± 6.4 % of control
same,"MIA PaCa-2 (pancreas, carcinoma) cell viability (% of control)",[4]; 100 nM,21.6 ± 9.1 % of control
same,"MIA PaCa-2 (pancreas, carcinoma) cell viability (% of control)",[4]; 300 nM,19.5 ± 7.5 % of control
same,"PC-3 (prostate, adenocarcinoma) cell viability (% of control)",[5]; 3.7 nM,103.6 ± 14.4 % of control
same,"PC-3 (prostate, adenocarcinoma) cell viability (% of control)",[5]; 11.1 nM,108.7 ± 7.7 % of control
same,"PC-3 (prostate, adenocarcinoma) cell viability (% of control)",[5]; 100 nM,35.3 ± 0.5 % of control
same,"PC-3 (prostate, adenocarcinoma) cell viability (% of control)",[5]; 300 nM,34.1 ± 2.0 % of control
same,"FaDu (pharynx, squamous cell carcinoma) cell viability (% of control)",[6]; 3.7 nM,97.9 ± 3.9 % of control
same,"FaDu (pharynx, squamous cell carcinoma) cell viability (% of control)",[6]; 11.1 nM,97.8 ± 5.2 % of control
same,"FaDu (pharynx, squamous cell carcinoma) cell viability (% of control)",[6]; 100 nM,27.3 ± 5.2 % of control
same,"FaDu (pharynx, squamous cell carcinoma) cell viability (% of control)",[6]; 300 nM,25.2 ± 4.6 % of control
same,"Panc-1 (pancreas, carcinoma) cell viability (% of control)",[7]; 3.7 nM,107.8 ± 16.0 % of control
same,"Panc-1 (pancreas, carcinoma) cell viability (% of control)",[7]; 11.1 nM,109.1 ± 4.2 % of control
same,"Panc-1 (pancreas, carcinoma) cell viability (% of control)",[7]; 100 nM,57.1 ± 0.1 % of control
same,"Panc-1 (pancreas, carcinoma) cell viability (% of control)",[7]; 300 nM,57.2 ± 3.2 % of control
same,LNCaP cell viability,[8]; 3.7 nM,101.8 ± 5.6 % of control
same,LNCaP cell viability,[8]; 11.1 nM,97.9 ± 7.3 % of control
same,LNCaP cell viability,[8]; 100 nM,15.4 ± 2.0 % of control
same,LNCaP cell viability,[8]; 300 nM,14.4 ± 0.7 % of control
same,"MDA-MB-453 (breast, carcinoma) cell viability (% of control)",[9]; 3.7 nM,113.6 ± 9.8 % of control
same,"MDA-MB-453 (breast, carcinoma) cell viability (% of control)",[9]; 11.1 nM,103.7 ± 10.4 % of control
same,"MDA-MB-453 (breast, carcinoma) cell viability (% of control)",[9]; 100 nM,33.9 ± 1.3 % of control
same,"MDA-MB-453 (breast, carcinoma) cell viability (% of control)",[9]; 300 nM,32.0 ± 1.1 % of control
same,"EBC-1 (lung, squamous cell carcinoma) cell viability (% of control)",[10]; 3.7 nM,101.0 ± 19.5 % of control
same,"EBC-1 (lung, squamous cell carcinoma) cell viability (% of control)",[10]; 11.1 nM,101.7 ± 3.3 % of control
same,"EBC-1 (lung, squamous cell carcinoma) cell viability (% of control)",[10]; 100 nM,25.1 ± 0.3 % of control
same,"EBC-1 (lung, squamous cell carcinoma) cell viability (% of control)",[10]; 300 nM,24.1 ± 2.4 % of control
same,"Detroit 562 (pharynx, carcinoma) cell viability (% of control)",[11]; 3.7 nM,99.8 ± 6.4 % of control
same,"Detroit 562 (pharynx, carcinoma) cell viability (% of control)",[11]; 11.1 nM,50.9 ± 15.2 % of control
same,"Detroit 562 (pharynx, carcinoma) cell viability (% of control)",[11]; 100 nM,31.6 ± 2.1 % of control
same,"Detroit 562 (pharynx, carcinoma) cell viability (% of control)",[11]; 300 nM,33.0 ± 3.4 % of control
same,"SCC-25 (tongue, squamous cell carcinoma) cell viability (% of control)",[12]; 3.7 nM,101.8 ± 4.3 % of control
same,"SCC-25 (tongue, squamous cell carcinoma) cell viability (% of control)",[12]; 11.1 nM,96.2 ± 4.8 % of control
same,"SCC-25 (tongue, squamous cell carcinoma) cell viability (% of control)",[12]; 100 nM,42.5 ± 1.8 % of control
same,"SCC-25 (tongue, squamous cell carcinoma) cell viability (% of control)",[12]; 300 nM,41.5 ± 3.1 % of control
same,"Capan-1 (pancreas, adenocarcinoma) cell viability (% of control)",[13]; 3.7 nM,105.9 ± 7.8 % of control
same,"Capan-1 (pancreas, adenocarcinoma) cell viability (% of control)",[13]; 11.1 nM,106.0 ± 8.0 % of control
same,"Capan-1 (pancreas, adenocarcinoma) cell viability (% of control)",[13]; 100 nM,40.1 ± 3.7 % of control
same,"Capan-1 (pancreas, adenocarcinoma) cell viability (% of control)",[13]; 300 nM,37.4 ± 3.5 % of control
same,"MDA-MB-231 (breast, adenocarcinoma) cell viability (% of control)",[14]; 3.7 nM,100.5 ± 5.4 % of control
same,"MDA-MB-231 (breast, adenocarcinoma) cell viability (% of control)",[14]; 11.1 nM,99.4 ± 4.1 % of control
same,"MDA-MB-231 (breast, adenocarcinoma) cell viability (% of control)",[14]; 100 nM,57.7 ± 3.8 % of control
same,"MDA-MB-231 (breast, adenocarcinoma) cell viability (% of control)",[14]; 300 nM,57.4 ± 1.7 % of control
same,DU 145 cell viability,[15]; 3.7 nM,96.8 ± 3.7 % of control
same,DU 145 cell viability,[15]; 11.1 nM,93.4 ± 2.2 % of control
same,DU 145 cell viability,[15]; 100 nM,8.0 ± 1.4 % of control
same,DU 145 cell viability,[15]; 300 nM,7.9 ± 1.6 % of control
